Patent publication US20250134869A1, “Pyrrolo[2,3-d]pyrimidinyl, Pyrrolo[2,3-b]pyrazinyl and Pyrrolo[2,3-d]pyridinyl Acryla-mides” (Pfizer Inc, priority 2021, published 2025)
Read-outs that look alike come from different tables or passages of the source.

Biological target: JAK3 enzyme (Homo sapiens (Human), UniProt P52333)
Assay: JAK Caliper Enzyme Assay at 4 μM or 1 mM ATP
Type: biochemical
Procedure: JAK Caliper Enzyme Assay at […] or 1 mM ATP
Test article was solubilized in dimethyl sulfoxide (DMSO) to a stock concentration of 30 mM. An 11-point half log dilution series was created in DMSO with a top concentration of 600 μM. […] The compound plates were diluted 1 to 60 resulting in a top final assay compound concentration of 10 μM and a 2% DMSO concentration.
Test article and assay controls were added to a 384-well plate. Reaction mixtures contained 20 mM HEPES, pH 7.4, 10 mM magnesium chloride, 0.01% bovine serum albumin (BSA), 0.0005% Tween […] or 1 mM ATP and […] peptide substrate. […] The assays were initiated by the addition 1 nM JAK3 enzyme and were incubated at room temperature 75 minutes for JAK3. Enzyme concentrations and incubation times were optimized for each new enzyme preps and were modified slightly over time to ensure 20%-30% phosphorylation. The assays were stopped with a final concentration of 10 mM EDTA, 0.1% Coating Reagent and 100 mM HEPES, pH=7.4. The assay plates were placed on a Caliper Life Science Lab Chip 3000 (LC3000) instrument, and each well was sampled using appropriate separation conditions to measure the unphosphorylated and phosphorylated peptide.

[1] = read-out: JAK3 (4 μM ATP) IC50, 4 μM ATP
[2] = read-out: JAK3 (1 mM ATP) IC50, 1 mM ATP

JAK3 enzyme, sequence (P52333 whole entry, species assumed): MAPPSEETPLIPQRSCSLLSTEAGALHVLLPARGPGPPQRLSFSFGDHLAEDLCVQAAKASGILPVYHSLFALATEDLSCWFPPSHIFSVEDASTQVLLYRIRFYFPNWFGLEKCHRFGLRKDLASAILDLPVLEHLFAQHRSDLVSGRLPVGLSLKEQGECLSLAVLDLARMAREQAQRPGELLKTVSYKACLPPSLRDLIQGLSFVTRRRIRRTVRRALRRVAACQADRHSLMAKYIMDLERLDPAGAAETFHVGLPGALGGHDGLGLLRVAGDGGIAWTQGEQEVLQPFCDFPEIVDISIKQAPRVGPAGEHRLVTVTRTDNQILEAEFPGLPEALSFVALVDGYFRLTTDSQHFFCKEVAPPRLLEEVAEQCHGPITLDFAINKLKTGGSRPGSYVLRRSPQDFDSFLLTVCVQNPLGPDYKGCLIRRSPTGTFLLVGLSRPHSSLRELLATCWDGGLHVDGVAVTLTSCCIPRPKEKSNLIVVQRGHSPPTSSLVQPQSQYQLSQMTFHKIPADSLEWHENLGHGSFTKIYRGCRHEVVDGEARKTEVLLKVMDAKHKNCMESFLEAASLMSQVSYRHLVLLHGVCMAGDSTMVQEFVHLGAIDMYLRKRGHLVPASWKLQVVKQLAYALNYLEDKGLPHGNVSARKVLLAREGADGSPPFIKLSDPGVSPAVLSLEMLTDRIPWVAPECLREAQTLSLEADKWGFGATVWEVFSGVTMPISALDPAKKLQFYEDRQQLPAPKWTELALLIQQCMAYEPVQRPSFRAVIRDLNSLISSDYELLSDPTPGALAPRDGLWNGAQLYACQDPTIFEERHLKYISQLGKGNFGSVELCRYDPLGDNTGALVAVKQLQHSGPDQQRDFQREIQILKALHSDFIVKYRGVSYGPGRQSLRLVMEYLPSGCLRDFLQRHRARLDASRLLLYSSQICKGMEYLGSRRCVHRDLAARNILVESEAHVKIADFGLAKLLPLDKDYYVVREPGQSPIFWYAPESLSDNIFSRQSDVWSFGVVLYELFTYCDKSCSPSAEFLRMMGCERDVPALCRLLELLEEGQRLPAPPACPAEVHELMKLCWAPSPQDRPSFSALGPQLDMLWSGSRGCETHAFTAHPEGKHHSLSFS

Row | Structure (SMILES) | IC50 [1] | IC50 [2]
1 | C=CC(=O)N1C[C@H](Nc2ncnc3[nH]ccc23)C[C@@H](N(C)C)C1 [Example 88, 1-[(3R,5R)-3-(Dimethylamino)-5-(7H-pyrrolo[2,3-d]pyrimidin-4-ylamino)piperidin-1-yl]prop-2-en-1-one] | 18.2 nM | 3390 nM
2 | C=CC(=O)N1C[C@H](Nc2ccnc3[nH]cc(C#N)c23)CC[C@@H]1C [Example 165, 4-{[(3R,6S)-1-Acryloyl-6-methylpiperidin-3-yl]amino}-1H-pyrrolo[2,3-b]pyridine-3-carbonitrile] | 0.5 nM | 22.7 nM
3 | C=CC(=O)NC[C@@]12C[C@@H]1CN(c1cnc3[nH]ccc3n1)C2 [Example 197, N-{[(1R,5S)-3-(5H-pyrrolo[2,3-b]pyrazin-2-yl)-3-azabicyclo[3.1.0]hex-1-yl]methyl}prop-2-enamide] | 3490 nM | 
4 | C=CC(=O)N1CCC(Nc2cnc3[nH]cc(C(=O)NCC(C)(F)F)c3n2)CC1 [Example 282, 2-[(1-acryloylpiperidin-4-yl)amino]-N-(2,2-difluoropropyl)-5H-pyrrolo[2,3-b]pyrazine-7-carboxamide] | 0.2 nM | 12.9 nM
5 | C=CC(=O)N1CCC(Nc2cnc3[nH]cc(-c4cccc(C(=O)NC)c4)c3n2)CC1 [Example 204, 3-{2-[(1-acryloylpiperidin-4-yl)amino]-5H-pyrrolo[2,3-b]pyrazin-7-yl}-N-methylbenzamide] | 0.5 nM | 49.3 nM
6 | C=CC(=O)N1CCC(Nc2cnc3[nH]cc(-c4ccc(S(C)(=O)=O)cc4)c3n2)CC1 [Example 203, 1-[4-({7-[4-(methylsulfonyl)phenyl]-5H-pyrrolo[2,3-b]pyrazin-2-yl}amino)piperidin-1-yl]prop-2-en-1-one] | 2 nM | 148 nM
7 | C=CC(=O)N1CC2(C1)CN(c1cnc3[nH]cc(C(=O)NC(C)C)c3n1)C2C (centres unmarked) [Example 322, 2-(6-acryloyl-1-methyl-2,6-diazaspiro[3.3]hept-2-yl)-N-(propan-2-yl)-5H-pyrrolo[2,3-b]pyrazine-7-carboxamide] | 29.4 nM | 3440 nM
8 | C=CC(=O)N1CCCC(Nc2ncnc3[nH]ccc23)C1 (centres unmarked) [Example 103, 1-[3-(7H-pyrrolo[2,3-d]pyrimidin-4-ylamino)piperidin-1-yl]prop-2-en-1-one] | 4.7 nM | 
9 | C=CC(=O)N1CCN(c2cnc3[nH]cc(C(=O)NC(C)C)c3n2)CC1 [Example 174, 2-(4-acryloylpiperazin-1-yl)-N-(propan-2-yl)-5H-pyrrolo[2,3-b]pyrazine-7-carboxamide] | 0.4 nM | 34.8 nM
10 | C=CC(=O)N[C@H]1CC[C@@H](Nc2cnc3[nH]cc(C(=O)NC(C)C)c3n2)CC1 [Example 182, 2-{[cis-4-(acryloylamino)cyclohexyl]amino}-N-(propan-2-yl)-5H-pyrrolo[2,3-b]pyrazine-7-carboxamide] | 11.4 nM | 975 nM
11 | C=C(C)C(=O)N1CCC[C@@H](N2CC(C)c3c[nH]c4ncnc2c34)C1 (mixture of isomers) [Example 153, 2-Methyl-1-[(3R)-3-(3-methyl-3,4-dihydro-1,5,6,8-tetraazaacenaphthylen-5 (1H)-yl)piperidin-1-yl]prop-2-en-1-one] | 9440 nM | 
12 | C=CC(=O)N1CCC(Nc2cnc3[nH]cc(-c4cncnc4)c3n2)CC1 [Example 202, 1-(4-{[7-(pyrimidin-5-yl)-5H-pyrrolo[2,3-b]pyrazin-2-yl]amino}piperidin-1-yl)prop-2-en-1-one] | 0.9 nM | 99.1 nM
13 | C=CC(=O)N1CCN(c2cnc3[nH]cc(C(=O)NC(C)C)c3n2)C[C@H]1CC [Example 311, 2-[(3R)-4-acryloyl-3-ethylpiperazin-1-yl]-N-(propan-2-yl)-5H-pyrrolo[2,3-b]pyrazine-7-carboxamide] | 1.2 nM | 200 nM
14 | C=CC(=O)N1CCC[C@@H](Nc2ncnc3[nH]cc(Cc4ccc(O)cc4)c23)C1 [Example 137, 1-[(3R)-3-{[5-(4-Hydroxybenzyl)-7H-pyrrolo[2,3-d]pyrimidin-4-yl]amino}piperidin-1-yl]prop-2-en-1-one] | 0.3 nM | 
15 | C=CC(=O)N1CCC(Oc2cnc3[nH]cc(-c4cnc(OC)nc4)c3n2)CC1 [Example 219, 1-(4-{[7-(2-methoxypyrimidin-5-yl)-5H-pyrrolo[2,3-b]pyrazin-2-yl]oxy}piperidin-1-yl)prop-2-en-1-one] | 1.7 nM | 153 nM
16 | C=CC(=O)N1CCC[C@@H](Nc2nc(Nc3cccnc3)nc3[nH]ccc23)C1 [Example 63, 1-[(3R)-3-{[2-(Pyridin-3-ylamino)-7H-pyrrolo[2,3-d]pyrimidin-4-yl]amino}piperidin-1-yl]prop-2-en-1-one] | 9.1 nM | 672 nM

Row | Structure (SMILES) | IC50 [1] | IC50 [2]
17 | C=CC(=O)N1CCC[C@@H](Nc2ncnc3[nH]cc(-c4cnc(N5CCOCC5)nc4)c23)C1 [Example 35, 1-[(3R)-3-({5-[2-(morpholin-4-yl)pyrimidin-5-yl]-7H-pyrrolo[2,3-d]pyrimidin-4-yl}amino)piperidin-1-yl]prop-2-en-1-one] | 83 nM | 
18 | C/C=C/C(=O)N1CCC[C@@H](Nc2ncnc3[nH]cc(C(=O)NCCOC)c23)C1 [Example 149, 4-({(3R)-1-[(2E)-but-2-enoyl]piperidin-3-yl}amino)-N-(2-methoxyethyl)-7H-pyrrolo[2,3-d]pyrimidine-5-carboxamide] | > 10000 nM | 
19 | C=CC(=O)N1CCC(Nc2cnc3[nH]cc(C(=O)N[C@@H](C)COC)c3n2)CC1 [Example 277, 2-[(1-acryloylpiperidin-4-yl)amino]-N-[(2S)-1-methoxypropan-2-yl]-5H-pyrrolo[2,3-b]pyrazine-7-carboxamide] | 0.3 nM | 6.6 nM
20 | C=CC(=O)N1CCC[C@@H](Nc2ncnc3[nH]cc(F)c23)C1 [Example 42, 1-{(3R)-3-[(5-fluoro-7H-pyrrolo[2,3-d]pyrimidin-4-yl)amino]piperidin-1-yl}prop-2-en-1-one] | 0.9 nM | 94.4 nM
21 | C=CC(=O)NC1CN(c2cnc3[nH]cc(C(=O)NC(C)C)c3n2)C1 [Example 173, 2-[3-(acryloylamino)azetidin-1-yl]-N-(propan-2-yl)-5H-pyrrolo[2,3-b]pyrazine-7-carboxamide] | 8.1 nM | 692 nM
22 | C=C(C)C(=O)N1CCC[C@@H](Nc2ncnc3[nH]cc(CCOC)c23)C1 [Example 110, 1-[(3R)-3-{[5-(2-methoxyethyl)-7H-pyrrolo[2,3-d]pyrimidin-4-yl]amino}piperidin-1-yl]-2-methylprop-2-en-1-one] | 1430 nM | 
23 | C=CC(=O)N1CCC(Nc2cnc3[nH]cc(C(=O)NC4CCCC4(F)F)c3n2)CC1 (centres unmarked) [Example 234, 2-[(1-acryloylpiperidin-4-yl)amino]-N-(2,2-difluorocyclopentyl)-5H-pyrrolo[2,3-b]pyrazine-7-carboxamide] | < 0.3 nM | 4.9 nM
24 | C/C=C/C(=O)N1CCC[C@@H](Nc2ncnc3[nH]cc(C(=O)NCCO)c23)C1 [Example 148, 4-({(3R)-1-[(2E)-but-2-enoyl]piperidin-3-yl}amino)-N-(2-hydroxyethyl)-7H-pyrrolo[2,3-d]pyrimidine-5-carboxamide] | 6960 nM | 
25 | C=CC(=O)N1CCC(Nc2cnc3[nH]cc(-c4ccnc(F)c4)c3n2)CC1 [Example 211, 1-(4-{[7-(2-fluoropyridin-4-yl)-5H-pyrrolo[2,3-b]pyrazin-2-yl]amino}piperidin-1-yl)prop-2-en-1-one] | 0.2 nM | 34.2 nM
26 | C=CC(=O)NC[C@@]12C[C@@H]1CN(c1cnc3[nH]cc(C(=O)NC(C)C)c3n1)C2 [Example 183, 2-{(1R,5S)-1-[(acryloylamino)methyl]-3-azabicyclo[3.1.0]hex-3-yl}-N-(propan-2-yl)-5H-pyrrolo[2,3-b]pyrazine-7-carboxamide] | 9.6 nM | 794 nM
27 | C=CC(=O)N1CCC(Nc2cnc3[nH]cc(C(=O)NCC(C)(C)C)c3n2)CC1 [Example 271, 2-[(1-acryloylpiperidin-4-yl)amino]-N-(2,2-dimethylpropyl)-5H-pyrrolo[2,3-b]pyrazine-7-carboxamide] | 0.4 nM | 14.9 nM
28 | C=CC(=O)N1CCC(Nc2cnc3[nH]cc(C(=O)NC4CCC4)c3n2)CC1 [Example 280, 2-[(1-acryloylpiperidin-4-yl)amino]-N-cyclobutyl-5H-pyrrolo[2,3-b]pyrazine-7-carboxamide] | 0.2 nM | 4 nM
29 | C=CC(=O)N1CCC(Nc2cnc3[nH]cc(C(=O)N[C@@H](C(C)C)[C@H](O)C(F)(F)F)c3n2)CC1 [Example 252, 2-[(1-acryloylpiperidin-4-yl)amino]-N-[(2S,3S)-1,1,1-trifluoro-2-hydroxy-4-methylpentan-3-yl]-5H-pyrrolo[2,3-b]pyrazine-7-carboxamide] | 0.5 nM | 37.2 nM
30 | C=CC(=O)N1CC[C@@H](Nc2cnc3[nH]cc(C(=O)NC(C)C)c3n2)[C@H](OC)C1 [Example 305, 2-{[(3R,4R)-1-acryloyl-3-methoxypiperidin-4-yl]amino}-N-(propan-2-yl)-5H-pyrrolo[2,3-b]pyrazine-7-carboxamide] | 0.8 nM | 65 nM
31 | C=CC(=O)N1CCC[C@@H](Nc2ncnc3[nH]cc(C(=O)NC)c23)C1 [Example 145, 4-{[(3R)-1-acryloylpiperidin-3-yl]amino}-N-methyl-7H-pyrrolo[2,3-d]pyrimidine-5-carboxamide] | 112 nM | 
